Measured values as given in US11370798B2 (Vertex Pharmaceuticals Incorporated, priority 2012, dated 2022).

These molecules were tested on HCT116 colorectal cancer cells (assay: Cisplatin sensitization assay (96 h cell viability MTS)). Settings: compound and Cisplatin added simultaneously, Cisplatin sensitization value.
Type: cell-based
Method in brief: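 Compound and cisplatin added together as a full matrix of 2-fold serial dilutions from a top final concentration of 10 μM; cells incubated 96 h at 37° C, 5% CO2. Viability then read by MTS after 1 h further incubation; sensitization value reported in μM bins.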
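Also: Test-compound concentration that lowers the Cisplatin IC50 by a set fold.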

SMILES | Cisplatin Sensitization Assay
CN1CCC[C@H]1COc1ccncc1NC(=O)c1c(N)nn2cc(Cl)cnc12 [I-O-50, (S)-2-amino-6-chloro-N-(4-((1-methylpyrrolidin-2-yl)methoxy)pyridin-3-yl)pyrazolo[1,5-a]pyrimidine-3-carboxamide] | + (Cisplatin sensitization value>0.2 μM but <5 μM)
CN(C)CCCOc1ccncc1NC(=O)c1c(N)nn2cc(Cl)cnc12 [I-O-52, 2-amino-6-chloro-N-(4-(3-(dimethylamino)propoxy)pyridin-3-yl)pyrazolo[1,5-a]pyrimidine-3-carboxamide] | + (Cisplatin sensitization value>0.2 μM but <5 μM)
Nc1nn2cc(Cl)cnc2c1C(=O)Nc1cnccc1OCCCO [I-O-53, 2-amino-6-chloro-N-(4-(3-hydroxypropoxy)pyridin-3-yl)pyrazolo[1,5-a]pyrimidine-3-carboxamide] | +++ (Cisplatin sensitization value of <0.02 μM)
Nc1nn2cc(Cl)cnc2c1C(=O)Nc1cnccc1O[C@@H]1CCOC1 [I-O-54, (R)-2-amino-6-chloro-N-(4-((tetrahydrofuran-3-yl)oxy)pyridin-3-yl)pyrazolo[1,5-a]pyrimidine-3-carboxamide] | +++ (Cisplatin sensitization value of <0.02 μM)
COCCOc1ccncc1NC(=O)c1c(N)nn2cc(Cl)cnc12 [I-O-55, 2-amino-6-chloro-N-(4-(2-methoxyethoxy)pyridin-3-yl)pyrazolo[1,5-a]pyrimidine-3-carboxamide] | ++ (Cisplatin sensitization value>0.02 μM but <0.2 μM)
CCOc1ccncc1NC(=O)c1c(N)nn2cc(Cl)cnc12 [I-O-56, 2-amino-6-chloro-N-(4-ethoxypyridin-3-yl)pyrazolo[1,5-a]pyrimidine-3-carboxamide] | +++ (Cisplatin sensitization value of <0.02 μM)
COc1ccncc1NC(=O)c1c(N)nn2cc(Cl)cnc12 [I-O-57, 2-amino-6-chloro-N-(4-methoxypyridin-3-yl)pyrazolo[1,5-a]pyrimidine-3-carboxamide] | +++ (Cisplatin sensitization value of <0.02 μM)
Nc1nn2cc(Cl)cnc2c1C(=O)Nc1cnccc1O[C@H]1CCOC1 [I-O-58, (S)-2-amino-6-chloro-N-(4-((tetrahydrofuran-3-yl)oxy)pyridin-3-yl)pyrazolo[1,5-a]pyrimidine-3-carboxamide] | +++ (Cisplatin sensitization value of <0.02 μM)
Nc1nn2cc(Cl)cnc2c1C(=O)Nc1cnccc1OCC(F)(F)F [I-O-59, 2-amino-6-chloro-N-(4-(2,2,2-trifluoroethoxy)pyridin-3-yl)pyrazolo[1,5-a]pyrimidine-3-carboxamide] | +++ (Cisplatin sensitization value of <0.02 μM)
Nc1nn2cc(Cl)cnc2c1C(=O)Nc1cnccc1OCCN1CCOCC1 [I-O-60, 2-amino-6-chloro-N-(4-(2-morpholinoethoxy)pyridin-3-yl)pyrazolo[1,5-a]pyrimidine-3-carboxamide] | ++ (Cisplatin sensitization value>0.02 μM but <0.2 μM)
Nc1nn2cc(Cl)cnc2c1C(=O)Nc1cnccc1OC1CCOCC1 [I-O-61, 2-amino-6-chloro-N-(4-((tetrahydro-2H-pyran-4-yl)oxy)pyridin-3-yl)pyrazolo[1,5-a]pyrimidine-3-carboxamide] | +++ (Cisplatin sensitization value of <0.02 μM)
Nc1nn2cc(Cl)cnc2c1C(=O)Nc1cnccc1OC1CN2CCC1CC2 (stereo not shown) [I-O-62, 2-amino-6-chloro-N-(4-(quinuclidin-3-yloxy)pyridin-3-yl)pyrazolo[1,5-a]pyrimidine-3-carboxamide] | +++ (Cisplatin sensitization value of <0.02 μM)
CN1CC[C@@H](Oc2ccncc2NC(=O)c2c(N)nn3cc(Cl)cnc23)C1 [I-O-63, (R)-2-amino-6-chloro-N-(4-((1-methylpyrrolidin-3-yl)oxy)pyridin-3-yl)pyrazolo[1,5-a]pyrimidine-3-carboxamide] | ++ (Cisplatin sensitization value>0.02 μM but <0.2 μM)
